Laboratory results published in patent EP1268487B1, “TRICYCLIC PROTEIN KINASE INHIBITORS” (Wyeth, priority 2000, dated 2001).

Biological target: T1, p60^c-src (Homo sapiens, UniProt P12931)
T1 construct: purchased Upstate Biotechnologies
Assay: Src kinase assay (ELISA format)
Type: biochemical
Experimental: Inhibitors of p60^c-src (partially purified preparation purchased from Upstate Biotechnologies) tyrosine kinase activity are analyzed in an ELISA format. The Boehringer Mannheim Tyrosine Kinase Assay Kit (Catalog number 1-534505) with a cdc2 substrate peptide containing Tyr15 is used for the assay. HRP-conjugated anti-phosphotyrosine is used to detect phosphorylated peptide via a color reaction. Conditions recommended by the manufacturer are employed.
Reaction conditions: Five microliter aliquots of each compound prepared fresh at the time of the assay are added as a solution in 10mM HEPES pH 7.5, 10% DMSO to the reaction well. Thirty-five microliters of reaction mix containing Src, buffer and peptide/bovine serum albumin mix are added to the compound wells and incubated at 30°C for 10 minutes (reaction buffer: 50mM TrisHCl pH 7.5, 10mM MgCl2, 0.1mM EGTA, 0.5mM Na3VO4). The reaction is started by addition of 10 microliters of ATP, incubated at 30°C for 1 hour, and stopped by addition of 20 microliters of 0.5M EDTA. The reaction mixture with the phosphorylated peptide was then transferred to a streptavidin-coated microtiter plate (provided in the kit) and allowed to bind for 20 minutes. […] Substrate (provided in the kit) was added and absorbance at 405nm was measured.
Activity was determined as % inhibition as calculated by the formula: (1 - Abs/Abs(max)) x 100 = % inhibition. […]

T1 sequence (P12931 whole entry): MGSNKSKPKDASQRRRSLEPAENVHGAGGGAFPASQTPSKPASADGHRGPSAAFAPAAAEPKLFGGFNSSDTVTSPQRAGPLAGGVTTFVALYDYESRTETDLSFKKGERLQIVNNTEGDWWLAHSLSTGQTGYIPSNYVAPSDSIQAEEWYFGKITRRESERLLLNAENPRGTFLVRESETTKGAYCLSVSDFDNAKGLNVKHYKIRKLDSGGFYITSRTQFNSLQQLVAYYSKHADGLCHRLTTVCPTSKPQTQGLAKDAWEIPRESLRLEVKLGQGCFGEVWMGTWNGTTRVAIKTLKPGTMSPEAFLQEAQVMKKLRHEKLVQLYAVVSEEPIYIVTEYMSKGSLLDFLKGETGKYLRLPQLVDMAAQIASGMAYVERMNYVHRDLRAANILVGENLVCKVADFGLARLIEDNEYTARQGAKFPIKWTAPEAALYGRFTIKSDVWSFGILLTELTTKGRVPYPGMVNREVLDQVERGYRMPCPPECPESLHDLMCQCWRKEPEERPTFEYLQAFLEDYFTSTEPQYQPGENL

With CCN1CCN(CCCCN2CCOc3cc4c(Nc5ccc(Cl)cc5Cl)c(C#N)cnc4cc32)CC1 [Example 24, 9-(2,4-Dichloroanilino)-4-[4-(4-ethyl-1-piperazinyl)butyl]-3,4-dihydro-2H-[1,4]oxazino[2,3-g]quinoline-8-carbonitrile] the IC50 was 1010 nM.
